Data published in ChEMBL document CHEMBL1212824, “A type-II kinase inhibitor capable of inhibiting the T315I "gatekeeper" mutant of Bcr-Abl” (J Med Chem, 2010).
One block for each molecule: values may come before it.

What was measured:
cells [1] = conditions: Mus musculus, BaF3
cells [2] = conditions: Mus musculus, BaF3; remark: listed apart in the source
cells [3] = conditions: Mus musculus, BaF3; remark: listed apart in the source
cells [4] = conditions: Mus musculus, BaF3; remark: listed apart in the source
cells [5] = conditions: Mus musculus, BaF3; remark: listed apart in the source
cells [6] = conditions: Mus musculus, BaF3; remark: listed apart in the source
cells [7] = conditions: Mus musculus, BaF3; remark: listed apart in the source
[8] = target: Aurora kinase A (Homo sapiens) (UniProt O14965); experiment: Inhibition of human Aurora A at 10 uM
[9] = target: Tyrosine-protein kinase receptor UFO (Homo sapiens) (UniProt P30530); experiment: Inhibition of human Axl at 10 uM
[10] = target: Cytoplasmic tyrosine-protein kinase BMX (Homo sapiens) (UniProt P51813); experiment: Inhibition of human Bmx at 10 uM
[11] = target: RAF proto-oncogene serine/threonine-protein kinase (Homo sapiens) (UniProt P04049); experiment: Inhibition of human c-RAF at 10 uM
[12] = target: Calcium/calmodulin-dependent protein kinase type IV (Homo sapiens) (UniProt Q16566); experiment: Inhibition of human CaMK4 at 10 uM
[13] = target: Cyclin-dependent kinase 1/cyclin B1 (Homo sapiens) (UniProt P06493+P14635); experiment: Inhibition of human CDK1/cyclinB at 10 uM; type: protein-complex assay
[14] = target: Serine/threonine-protein kinase Chk2 (Homo sapiens) (UniProt O96017); experiment: Inhibition of human CHK2 at 10 uM
[15] = target: Casein kinase II (Homo sapiens) (UniProt P67870+P68400+P19784); experiment: Inhibition of human CK2 at 10 uM; type: protein-complex assay
[16] = target: Tyrosine-protein kinase CSK (Homo sapiens) (UniProt P41240); experiment: Inhibition of human CSK at 10 uM
[17] = target: Tyrosine-protein kinase Fes/Fps (Homo sapiens) (UniProt P07332); experiment: Inhibition of human Fes at 10 uM
[18] = target: Fibroblast growth factor receptor 3 (Homo sapiens) (UniProt P22607); experiment: Inhibition of human FGFR3 at 10 uM
[19] = target: Receptor-type tyrosine-protein kinase FLT3 (Homo sapiens) (UniProt P36888); experiment: Inhibition of human Flt3 at 10 uM
[20] = target: Glycogen synthase kinase-3 (Homo sapiens) (UniProt P49840+P49841); experiment: Inhibition of human GSK3ss at 10 uM; type: protein assay
[21] = target: Inhibitor of nuclear factor kappa-B kinase subunit alpha (Homo sapiens) (UniProt O15111); experiment: Inhibition of human IKKalpha at 10 uM
[22] = target: Insulin receptor (Homo sapiens) (UniProt P06213); experiment: Inhibition of human IR at 10 uM
[23] = target: Mitogen-activated protein kinase 8 (Homo sapiens) (UniProt P45983); experiment: Inhibition of human JNK1alpha1 at 10 uM
[24] = target: Mitogen-activated protein kinase 9 (Homo sapiens) (UniProt P45984); experiment: Inhibition of human JNK2alpha2 at 10 uM
[25] = target: Tyrosine-protein kinase Lck (Homo sapiens) (UniProt P06239); experiment: Inhibition of human Lck at 10 uM
[26] = target: Mitogen-activated protein kinase 1 (Homo sapiens) (UniProt P28482); experiment: Inhibition of human MAPK1 at 10 uM
[27] = target: MAP kinase-activated protein kinase 2 (Homo sapiens) (UniProt P49137); experiment: Inhibition of human MAPKAP-K2 at 10 uM
[28] = target: Dual specificity mitogen-activated protein kinase kinase 1 (Homo sapiens) (UniProt Q02750); experiment: Inhibition of human MEK1 at 10 uM
[29] = target: Dual specificity mitogen-activated protein kinase kinase 6 (Homo sapiens) (UniProt P52564); experiment: Inhibition of human MKK6 at 10 uM
[30] = target: Ribosomal protein S6 kinase beta-1 (Homo sapiens) (UniProt P23443); experiment: Inhibition of human p70S6K at 10 uM
[31] = target: Serine/threonine-protein kinase PAK 2 (Homo sapiens) (UniProt Q13177); experiment: Inhibition of human PAK2 at 10 uM
[32] = target: Platelet-derived growth factor receptor alpha (Homo sapiens) (UniProt P16234); experiment: Inhibition of human PDGFRalpha at 10 uM
[33] = target: RAC-alpha serine/threonine-protein kinase (Homo sapiens) (UniProt P31749); experiment: Inhibition of human PKBalpha at 10 uM
[34] = target: Protein kinase C alpha type (Homo sapiens) (UniProt P17252); experiment: Inhibition of human PKCalpha at 10 uM
[35] = target: Protein kinase C theta type (Homo sapiens) (UniProt Q04759); experiment: Inhibition of human PKCtheta at 10 uM
[36] = target: Serine/threonine-protein kinase D2 (Homo sapiens) (UniProt Q9BZL6); experiment: Inhibition of human PKD2 at 10 uM
[37] = target: Rho-associated protein kinase 2 (Homo sapiens) (UniProt O75116); experiment: Inhibition of human ROCK-2 at 10 uM
[38] = target: Ribosomal protein S6 kinase alpha-1 (Homo sapiens) (UniProt Q15418); experiment: Inhibition of human Rsk1 at 10 uM
[39] = target: Mitogen-activated protein kinase 14 (Homo sapiens) (UniProt Q16539); experiment: Inhibition of human SAPK2a at 10 uM
[40] = target: Mitogen-activated protein kinase 11 (Homo sapiens) (UniProt Q15759); experiment: Inhibition of human SAPK2b at 10 uM
[41] = target: Mitogen-activated protein kinase 12 (Homo sapiens) (UniProt P53778); experiment: Inhibition of human SAPK3 at 10 uM
[42] = target: Serine/threonine-protein kinase Sgk1 (Homo sapiens) (UniProt O00141); experiment: Inhibition of human SGK at 10 uM
[43] = target: Tyrosine-protein kinase SYK (Homo sapiens) (UniProt P43405); experiment: Inhibition of human Syk at 10 uM
[44] = target: BDNF/NT-3 growth factors receptor (Homo sapiens) (UniProt Q16620); experiment: Inhibition of human TrkB at 10 uM
[45] = target: Tyrosine-protein kinase ZAP-70 (Homo sapiens) (UniProt P43403); experiment: Inhibition of human ZAP-70 at 10 uM
[46] = Tmax in BALB/c mouse at 5 mg/kg, iv; type: ADME, organism-based; design: dose 5 mg/kg, route intravenous; conditions: in vivo
Mus musculus [47] = experiment: Tlast in BALB/c mouse at 5 mg/kg, iv; type: ADME, organism-based; design: dose 5 mg/kg, route intravenous; conditions: in vivo
Mus musculus [48] = experiment: Tlast in BALB/c mouse at 20 mg/kg, po; type: ADME, organism-based; design: dose 20 mg/kg, route oral; conditions: in vivo
Homo sapiens = species on record: Homo sapiens; conditions: 10 uM
Mus musculus [49] = species on record: Mus musculus; conditions: 10 uM
Mus musculus [50] = species on record: Mus musculus; conditions: in vivo, po, 20 mg/kg
COLO 205 = experiment: cells; conditions: Homo sapiens
SW-620 = experiment: cells; conditions: Homo sapiens
cells [51] = conditions: Homo sapiens, U-87 MG
cells [52] = conditions: Homo sapiens, HEK-293T
in vivo [53] = conditions: BALB/c, mouse, iv, 5 mg/kg
in vivo [54] = conditions: BALB/c, mouse, iv, 5 mg/kg; remark: listed apart in the source
in vivo [55] = conditions: BALB/c, mouse, iv, 5 mg/kg; remark: listed apart in the source
[56] = target: 3-phosphoinositide-dependent protein kinase 1 (Homo sapiens) (UniProt O15530); experiment: Inhibition of human PDK1 at 10 uM
cells [57] = conditions: Mus musculus, BaF3; remark: listed apart in the source

Chain of Mitogen-activated protein kinase 9 (Homo sapiens) (P45984 whole entry, looked up): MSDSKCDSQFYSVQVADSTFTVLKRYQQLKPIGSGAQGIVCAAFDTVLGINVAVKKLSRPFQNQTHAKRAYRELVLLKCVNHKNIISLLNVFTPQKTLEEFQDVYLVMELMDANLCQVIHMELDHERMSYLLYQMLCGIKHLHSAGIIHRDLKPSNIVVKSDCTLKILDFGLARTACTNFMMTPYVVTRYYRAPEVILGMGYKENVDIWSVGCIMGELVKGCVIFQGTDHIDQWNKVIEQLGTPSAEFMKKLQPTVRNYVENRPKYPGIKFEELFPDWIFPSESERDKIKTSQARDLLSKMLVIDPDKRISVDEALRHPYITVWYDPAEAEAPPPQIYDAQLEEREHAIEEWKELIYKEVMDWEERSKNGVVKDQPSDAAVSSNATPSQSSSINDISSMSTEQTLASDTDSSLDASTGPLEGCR
Chain of Serine/threonine-protein kinase Sgk1 (Homo sapiens) (O00141 whole entry): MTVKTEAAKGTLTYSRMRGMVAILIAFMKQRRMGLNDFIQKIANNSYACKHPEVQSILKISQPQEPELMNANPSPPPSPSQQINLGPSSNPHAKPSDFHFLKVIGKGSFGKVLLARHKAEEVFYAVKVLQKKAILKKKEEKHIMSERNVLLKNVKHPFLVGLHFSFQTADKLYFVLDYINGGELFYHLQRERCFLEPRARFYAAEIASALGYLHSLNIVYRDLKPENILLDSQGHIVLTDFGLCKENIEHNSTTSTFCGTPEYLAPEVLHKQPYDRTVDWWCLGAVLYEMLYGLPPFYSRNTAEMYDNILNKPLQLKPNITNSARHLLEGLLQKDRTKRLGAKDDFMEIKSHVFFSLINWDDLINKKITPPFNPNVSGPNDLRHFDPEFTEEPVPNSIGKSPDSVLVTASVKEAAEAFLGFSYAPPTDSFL
Chain of Dual specificity mitogen-activated protein kinase kinase 6 (Homo sapiens) (P52564 whole entry): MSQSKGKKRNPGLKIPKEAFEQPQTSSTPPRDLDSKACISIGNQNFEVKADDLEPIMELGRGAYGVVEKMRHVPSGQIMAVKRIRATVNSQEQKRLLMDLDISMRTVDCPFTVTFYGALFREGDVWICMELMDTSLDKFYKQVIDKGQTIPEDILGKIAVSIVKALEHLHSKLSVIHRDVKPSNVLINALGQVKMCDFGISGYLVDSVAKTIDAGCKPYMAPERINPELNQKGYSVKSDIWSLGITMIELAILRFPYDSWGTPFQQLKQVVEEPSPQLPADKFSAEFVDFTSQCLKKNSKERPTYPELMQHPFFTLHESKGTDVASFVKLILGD
Chain of Ribosomal protein S6 kinase alpha-1 (Homo sapiens) (Q15418 whole entry): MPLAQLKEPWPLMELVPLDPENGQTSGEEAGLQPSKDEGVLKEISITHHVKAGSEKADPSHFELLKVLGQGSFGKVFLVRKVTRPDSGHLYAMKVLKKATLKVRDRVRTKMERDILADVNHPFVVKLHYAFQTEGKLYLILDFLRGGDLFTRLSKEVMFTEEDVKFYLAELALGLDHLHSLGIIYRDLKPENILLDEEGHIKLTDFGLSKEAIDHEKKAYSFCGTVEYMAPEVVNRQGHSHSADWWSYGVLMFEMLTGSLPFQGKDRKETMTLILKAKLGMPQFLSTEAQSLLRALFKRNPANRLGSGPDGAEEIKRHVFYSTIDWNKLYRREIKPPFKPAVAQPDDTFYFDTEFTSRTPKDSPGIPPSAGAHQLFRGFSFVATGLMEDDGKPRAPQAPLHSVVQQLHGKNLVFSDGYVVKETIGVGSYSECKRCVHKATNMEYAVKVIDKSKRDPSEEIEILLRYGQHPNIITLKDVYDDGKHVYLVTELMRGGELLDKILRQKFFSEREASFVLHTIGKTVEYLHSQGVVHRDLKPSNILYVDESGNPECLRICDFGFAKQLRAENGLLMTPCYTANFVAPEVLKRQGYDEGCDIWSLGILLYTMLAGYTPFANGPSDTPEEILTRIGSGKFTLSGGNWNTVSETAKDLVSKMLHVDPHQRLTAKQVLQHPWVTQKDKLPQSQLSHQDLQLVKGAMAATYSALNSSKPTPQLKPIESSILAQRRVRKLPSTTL
Chain of RAF proto-oncogene serine/threonine-protein kinase (Homo sapiens) (P04049 whole entry): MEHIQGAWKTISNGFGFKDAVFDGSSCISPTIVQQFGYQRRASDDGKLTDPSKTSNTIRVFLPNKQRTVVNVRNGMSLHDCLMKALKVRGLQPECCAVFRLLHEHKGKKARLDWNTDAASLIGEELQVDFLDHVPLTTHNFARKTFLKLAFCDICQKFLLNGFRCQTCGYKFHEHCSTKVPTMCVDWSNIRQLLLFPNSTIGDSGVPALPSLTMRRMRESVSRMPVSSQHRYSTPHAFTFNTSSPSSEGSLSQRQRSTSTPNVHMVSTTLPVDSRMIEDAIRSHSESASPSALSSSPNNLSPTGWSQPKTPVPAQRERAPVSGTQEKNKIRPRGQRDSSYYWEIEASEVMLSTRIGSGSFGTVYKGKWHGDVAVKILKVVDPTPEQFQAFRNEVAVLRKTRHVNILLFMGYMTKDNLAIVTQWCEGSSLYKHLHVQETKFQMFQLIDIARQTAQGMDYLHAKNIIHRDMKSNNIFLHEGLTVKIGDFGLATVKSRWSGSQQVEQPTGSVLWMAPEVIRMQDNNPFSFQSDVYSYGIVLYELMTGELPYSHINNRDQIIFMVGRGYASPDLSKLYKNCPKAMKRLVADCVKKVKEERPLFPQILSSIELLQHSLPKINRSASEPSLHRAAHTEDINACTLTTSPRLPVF
Chain of Serine/threonine-protein kinase PAK 2 (Homo sapiens) (Q13177 whole entry): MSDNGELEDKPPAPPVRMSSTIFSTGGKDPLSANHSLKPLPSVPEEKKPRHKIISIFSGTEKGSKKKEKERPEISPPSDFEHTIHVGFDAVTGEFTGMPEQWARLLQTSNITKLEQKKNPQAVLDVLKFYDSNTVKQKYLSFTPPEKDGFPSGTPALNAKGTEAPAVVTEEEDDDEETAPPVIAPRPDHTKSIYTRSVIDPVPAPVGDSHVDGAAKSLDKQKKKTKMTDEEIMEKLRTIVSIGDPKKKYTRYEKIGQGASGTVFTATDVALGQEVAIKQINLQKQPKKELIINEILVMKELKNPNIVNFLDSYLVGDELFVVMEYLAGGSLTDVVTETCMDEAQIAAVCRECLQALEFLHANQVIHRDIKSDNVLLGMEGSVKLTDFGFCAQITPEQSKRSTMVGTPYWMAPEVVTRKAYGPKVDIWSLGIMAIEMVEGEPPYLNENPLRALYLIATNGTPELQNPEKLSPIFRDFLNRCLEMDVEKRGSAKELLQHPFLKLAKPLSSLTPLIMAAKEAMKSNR
Chain of Mitogen-activated protein kinase 11 (Homo sapiens) (Q15759 whole entry): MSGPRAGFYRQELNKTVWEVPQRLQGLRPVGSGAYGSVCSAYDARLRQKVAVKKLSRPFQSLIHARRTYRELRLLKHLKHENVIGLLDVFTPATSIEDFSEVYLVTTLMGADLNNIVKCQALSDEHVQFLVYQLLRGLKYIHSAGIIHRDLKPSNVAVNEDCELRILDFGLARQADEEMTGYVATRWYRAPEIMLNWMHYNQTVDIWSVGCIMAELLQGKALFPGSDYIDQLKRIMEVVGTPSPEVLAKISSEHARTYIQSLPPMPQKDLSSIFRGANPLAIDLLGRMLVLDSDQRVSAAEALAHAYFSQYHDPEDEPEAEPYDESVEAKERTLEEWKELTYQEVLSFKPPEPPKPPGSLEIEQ
Chain of Serine/threonine-protein kinase Chk2 (Homo sapiens) (O96017 whole entry): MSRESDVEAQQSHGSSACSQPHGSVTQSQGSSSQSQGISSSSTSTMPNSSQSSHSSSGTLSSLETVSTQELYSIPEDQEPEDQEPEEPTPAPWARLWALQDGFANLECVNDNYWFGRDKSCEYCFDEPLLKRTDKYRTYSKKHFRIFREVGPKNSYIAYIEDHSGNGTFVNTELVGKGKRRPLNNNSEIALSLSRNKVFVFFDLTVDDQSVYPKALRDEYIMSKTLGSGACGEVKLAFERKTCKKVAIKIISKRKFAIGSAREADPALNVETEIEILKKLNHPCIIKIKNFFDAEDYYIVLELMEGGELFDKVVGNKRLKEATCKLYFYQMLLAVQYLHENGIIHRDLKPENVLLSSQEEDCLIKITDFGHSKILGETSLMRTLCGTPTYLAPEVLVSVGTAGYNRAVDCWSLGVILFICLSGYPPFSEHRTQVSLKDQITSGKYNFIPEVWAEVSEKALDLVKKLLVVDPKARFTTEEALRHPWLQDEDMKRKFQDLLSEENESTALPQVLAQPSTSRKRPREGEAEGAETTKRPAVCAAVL
Chain of Inhibitor of nuclear factor kappa-B kinase subunit alpha (Homo sapiens) (O15111 whole entry): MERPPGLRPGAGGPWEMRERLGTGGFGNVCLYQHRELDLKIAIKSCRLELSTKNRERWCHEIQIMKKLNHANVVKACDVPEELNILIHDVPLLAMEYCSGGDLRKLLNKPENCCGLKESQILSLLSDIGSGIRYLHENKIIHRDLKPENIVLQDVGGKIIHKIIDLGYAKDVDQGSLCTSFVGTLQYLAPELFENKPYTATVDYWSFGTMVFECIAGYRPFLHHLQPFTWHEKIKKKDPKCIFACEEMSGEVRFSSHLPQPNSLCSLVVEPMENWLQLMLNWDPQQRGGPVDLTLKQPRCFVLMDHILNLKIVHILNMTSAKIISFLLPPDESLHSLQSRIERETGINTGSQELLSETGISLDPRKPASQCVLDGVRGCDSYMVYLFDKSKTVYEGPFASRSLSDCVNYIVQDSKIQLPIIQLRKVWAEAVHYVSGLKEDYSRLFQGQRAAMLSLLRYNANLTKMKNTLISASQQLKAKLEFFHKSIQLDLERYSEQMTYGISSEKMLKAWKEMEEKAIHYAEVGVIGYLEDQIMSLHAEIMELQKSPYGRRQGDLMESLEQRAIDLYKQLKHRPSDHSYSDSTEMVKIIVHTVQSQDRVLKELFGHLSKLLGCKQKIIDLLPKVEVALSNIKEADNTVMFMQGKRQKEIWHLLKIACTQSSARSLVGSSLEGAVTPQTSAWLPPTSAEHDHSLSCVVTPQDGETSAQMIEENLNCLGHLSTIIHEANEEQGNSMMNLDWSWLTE

IC50 (cells [1]): < 5 nM | IC50 (cells [2]): < 5 nM | IC50 (cells [3]): 16 nM | IC50 (cells [4]): 15 nM | IC50 (cells [5]): 13 nM | IC50 (cells [6]): < 5 nM | IC50 (cells [7]): < 5 nM
Structure (SMILES): CNc1ncc2c(n1)N(C)C(=O)N(c1cc(NC(=O)c3cc(-n4cnc(C)c4)cc(C(F)(F)F)c3)ccc1C)C2

inhibition [8]: 31% | inhibition [9]: 69% | inhibition [10]: 98% | inhibition [11]: 100% | inhibition [12]: 0% | inhibition [13]: 3% | inhibition [14]: 12% | inhibition [15]: 6% | inhibition [16]: 100% | inhibition [17]: 98% | inhibition [18]: 100% | inhibition [19]: 69% | inhibition [20]: 59% | inhibition [21]: 69% | inhibition [22]: 89% | inhibition [23]: 97% | inhibition [24]: 99% | inhibition [25]: 99% | inhibition [26]: 68% | inhibition [27]: 0% | inhibition [28]: 58% | inhibition [29]: 100% | inhibition [30]: 92% | inhibition [31]: 45% | inhibition [32]: 62% | inhibition [33]: 7% | inhibition [34]: 51% | inhibition [35]: 22% | inhibition [36]: 77% | inhibition [37]: 2% | inhibition [38]: 95% | inhibition [39]: 95% | inhibition [40]: 98% | inhibition [41]: 35% | inhibition [42]: 0% | inhibition [43]: 98% | inhibition [44]: 100% | inhibition [45]: 6% | Tmax [46]: 1.8 min | Tlast (Mus musculus [47]): 24 h | Tlast (Mus musculus [48]): 24 h | inhibition (Homo sapiens): 49% | inhibition (Mus musculus [49]): 98% | Cmax (Mus musculus [50]): 3.62 µM | IC50 (COLO 205): 5 nM | IC50 (SW-620): 1 nM | IC50 (cells [51]): 5960 nM | IC50 (cells [52]): > 10000 nM | Vd (in vivo [53]): 1.12 L/kg | Cmax (in vivo [54]): 11.7 µM | half-life (in vivo [55]): 3.8 h | inhibition [56]: 0%
Structure (SMILES): Cc1ccc(Nc2ncc3c(n2)N(C)C(=O)N(c2cc(NC(=O)c4cccc(C(F)(F)F)c4)ccc2C)C3)cn1

IC50 (cells [1]): < 5 nM | IC50 (cells [3]): < 5 nM | IC50 (cells [4]): < 5 nM | IC50 (cells [5]): < 5 nM | IC50 (cells [57]): < 5 nM | IC50 (cells [6]): < 5 nM | IC50 (cells [7]): < 5 nM
Structure (SMILES): Cc1ccc(NC(=O)c2cccc(C(F)(F)F)c2)cc1N1Cc2cnc(N)nc2N(C)C1=O

IC50 (cells [1]): < 5 nM | IC50 (cells [3]): 19 nM | IC50 (cells [4]): < 5 nM | IC50 (cells [7]): < 5 nM
Structure (SMILES): Cc1ccc(NC(=O)c2cccc(C(F)(F)F)c2)cc1N1Cc2cnc(Nc3ccccc3)nc2N(C)C1=O
